Experiment [1] deals with T1, human SIRT3 (Homo sapiens, UniProt Q9NTG7).
T1 construct: pET151D/Topo (Sirt3-114-380 and Sirt5-34-302); His tag (N, cleaved yes); made in house; host or cells: Escherichia coli
T1 sequence (Q9NTG7 114-380): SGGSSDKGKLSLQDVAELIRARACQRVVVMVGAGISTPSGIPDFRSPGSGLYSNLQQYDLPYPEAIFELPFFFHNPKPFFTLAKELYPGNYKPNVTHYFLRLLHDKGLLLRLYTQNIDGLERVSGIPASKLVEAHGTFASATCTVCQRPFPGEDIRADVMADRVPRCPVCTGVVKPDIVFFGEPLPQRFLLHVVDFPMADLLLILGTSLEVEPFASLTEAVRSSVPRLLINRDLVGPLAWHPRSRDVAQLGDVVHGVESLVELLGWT
Also on record: method as in PMID 36228194. Conditions: 100 μM; cited from earlier work.

The target in experiment [2] is T1, human SIRT3. Kind of experiment: Surface plasmon resonance binding assay, immobilized SIRT3. Particulars: SPR, Scatchard analysis, analytes 5-80 μM. Here is the method: Next, surface plasmon resonance (SPR) experiments were conducted with selected SIRT3 activators 2e and 3a–d to ascertain their biophysical interaction with the human SIRT3 protein. Their parental compounds 2 and 3, together with honokiol, were used as positive controls. The experiments were carried out twice at different concentrations (5, 10, 20, 40, and 80 μM), by injecting the compounds at increasing doses (Figure 5). The resonance units (RU) increase with respect to baseline indicates the formation of the SIRT3/ligand complex, the plateau region represents the steady-state phase of the interaction (RUeq, RU at equilibrium) and the decrease in RU after 180 s represents dissociation of analytes from the immobilized SIRT3 protein after injection of the buffer.
SPR experiments were carried out using a SensiQ Pioneer system (SensiQ, Oklahoma City, OK, USA), essentially as in Genovese et al. 2020[84] and in Battista et al. 2021,[85] with some modifications, as follows.
The sensor chip (COOH5) was chemically activated by a 35 μL injection of a 1:1 mixture of […] (200 mM) and N-hydroxysuccinimide (50 mM) at a flow rate of 5 μL/min. Sirtuin3 (ligand) was immobilized on activated sensor chips via amine coupling. Immobilization was carried out in 20 mM sodium acetate at pH 4.0; unreacted groups were blocked by injecting 1 M ethanolamine hydrochloride (35 μL). Sirtuin3 immobilization level obtained was 1500–4000 RU.
The analytes, dissolved in 100% DMSO at 10 mM concentration, were diluted in buffer 20 mM Hepes, 150 mM NaCl, 0.005% surfactant P20 buffer (HBSP) to a concentration of 200 μM (2% final DMSO concentration), further diluted in HBSP + 2% DMSO (HBSP2%D) and injected on the sensor chip at a constant flow rate (nominal flow rate = 30 μL/min) at the following concentrations: 5, 10, 20, 40, and 80 μM.
The RU increase relative to baseline indicates complex formation (taking place at known analytes concentrations at each moment in the gradient); the plateau region represents the steady-state phase of the interaction (RUeq); and the decrease in RU after 180 s represents dissociation of analytes from the immobilized Sirtiun3 after injection of HBSP2%D. Regeneration procedures are based on two long (2000 and 500 s) injections of buffer, separated by a brief (5 s) injection of 10 mM NaOH.
Control experiments were performed in sensor chips treated as described above in the absence of an immobilized ligand. Kinetic evaluation of the sensorgrams was obtained using the SensiQ Qdat program and full fitting with 1, 2, and 3 sites; Scatchard analysis was used to determine apparent KD values.

The target of a further experiment is T2, human SIRT1 (Homo sapiens, UniProt Q96EB6).
T2 construct: using constructs in pET15b (Sirt1); His tag (N, cleaved yes); made in house; host or cells: Escherichia coli
T2 sequence (Q96EB6 1-747): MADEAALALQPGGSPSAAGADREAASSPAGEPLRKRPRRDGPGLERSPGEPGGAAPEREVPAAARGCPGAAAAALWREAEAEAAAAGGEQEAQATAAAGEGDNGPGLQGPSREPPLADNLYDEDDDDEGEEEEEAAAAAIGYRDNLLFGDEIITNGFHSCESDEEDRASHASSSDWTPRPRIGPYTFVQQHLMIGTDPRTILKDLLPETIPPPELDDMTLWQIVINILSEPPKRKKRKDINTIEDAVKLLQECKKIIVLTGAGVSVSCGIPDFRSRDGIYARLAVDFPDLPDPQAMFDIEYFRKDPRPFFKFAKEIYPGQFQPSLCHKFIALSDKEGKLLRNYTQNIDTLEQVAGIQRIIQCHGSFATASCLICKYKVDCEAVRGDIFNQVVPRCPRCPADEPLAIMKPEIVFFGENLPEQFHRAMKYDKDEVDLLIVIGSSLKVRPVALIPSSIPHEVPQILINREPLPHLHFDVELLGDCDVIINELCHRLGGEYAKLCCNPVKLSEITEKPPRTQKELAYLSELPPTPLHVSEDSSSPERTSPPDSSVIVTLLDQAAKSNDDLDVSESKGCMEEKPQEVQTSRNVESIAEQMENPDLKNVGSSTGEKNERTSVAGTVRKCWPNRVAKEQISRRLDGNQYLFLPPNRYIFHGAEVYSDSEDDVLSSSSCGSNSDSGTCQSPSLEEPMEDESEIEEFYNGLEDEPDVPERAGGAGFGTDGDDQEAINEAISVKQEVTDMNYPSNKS
Details: method as in PMID 36228194. Particulars: 100 μM; cited from earlier work.

By Kd is commonly meant the concentration at which binding is half-saturated. Low readings indicate tighter binding, high ones weaker binding.

Consider `CCOC(=O)C1=CN(C(=O)c2ccccc2)C=C(C(=O)OCC)C1c1ccccc1` [Compound 2], for which the SIRT3 activation entry on human SIRT3 [1] is recorded as “over 300%”. The same compound showed a Kd on human SIRT3 [2] of 40 to 47 µM. Further, the SIRT1 activation result at human SIRT1 was “below 200%”.
